Target: histone deacetylase enzyme from partially purified extracts of Eimeria tenella
Assay: ChEBML_79057
Description: Inhibitory activity against histone deacetylase enzyme derived from partially purified extracts of Eimeria tenella protozoa using [3H]11 as radioligand

| Structure (SMILES) | IC50 [µM] |
| --- | --- |
| CCC(=O)CCCCC[C@@H]1NC(=O)[C@H]2CCCCN2C(=O)[C@H]([C@@H](C)CC)NC(=O)[C@H](c2cnc3ccccc3c2N2CCCCC2)NC1=O | 0.0008 |
| CCC(=O)CCCCC[C@@H]1NC(=O)[C@H]2CCCCN2C(=O)[C@H]([C@@H](C)CC)NC(=O)[C@H](CC2CN(OC)c3ccc(Br)cc32)NC1=O (stereo not given in full) | 2.5 |
| CCCn1cc(C(O)c2nc(O)c(CCCCCC(=O)CC)[nH]c(O)c3n(c(O)c([C@@H](C)CC)[nH]c2=O)CCCC3)c2ccccc21 (stereo not given in full) | 0.004 |
| CCC(=O)CCCCCc1[nH]c(O)c2n(c(O)c([C@@H](C)CC)[nH]c(=O)c(C(O)c3ccc4c(ccn4C)c3)nc1O)CCCC2 (stereo not given in full) | 0.03 |
| CCC(=O)CCCCC[C@@H]1NC(=O)[C@H]2CCCCN2C(=O)[C@H]([C@@H](C)CC)NC(=O)[C@H](c2cn(OC)c3ccccc3c2=O)NC1=O | 0.004 |
| CCC(=O)CCCCCc1[nH]c(O)c2n(c(O)c([C@@H](C)CC)[nH]c(=O)c(C(O)c3c[nH]c4ccccc34)nc1O)CCCC2 (stereo not given in full) | 0.023 |
| CCC(=O)CCCCC[C@@H]1NC(=O)[C@H]2CCCCN2C(=O)[C@H]([C@@H](C)CC)NC(=O)[C@H](Cc2cn(CC)c3ccccc23)NC1=O | 0.1 |
| CCC(=O)CCCCC[C@@H]1NC(=O)[C@H]2CCCCN2C(=O)[C@H]([C@@H](C)CC)NC(=O)[C@H](c2cn(CC)c3ccccc3c2=O)NC1=O | 0.011 |
| CCC(=O)CCCCC[C@@H]1NC(=O)[C@H]2CCCCN2C(=O)[C@H]([C@@H](C)CC)NC(=O)[C@H](Cc2cn(C)c3ccccc23)NC1=O | 0.005 |
| CCC(=O)CCCCC[C@@H]1NC(=O)[C@H]2CCCCN2C(=O)[C@H]([C@@H](C)CC)NC(=O)[C@H](CCOc2ccccc2)NC1=O | 0.003 |
| CCC(=O)CCCCCc1[nH]c(O)c2n(c(O)c([C@@H](C)CC)[nH]c(=O)c(CC(O)c3ccccc3[N+](=O)[O-])nc1O)CCCC2 (stereo not given in full) | 0.033 |
| CCC(=O)CCCCC[C@@H]1NC(=O)[C@H]2CCCCN2C(=O)[C@H]([C@@H](C)CC)NC(=O)[C@H](Cc2cn(OC)c3ccc(Br)cc23)NC1=O | 0.175 |
| CCC(=O)CCCCC[C@@H]1NC(=O)[C@H]2CCCCN2C(=O)[C@H]([C@@H](C)CC)NC(=O)[C@H](Cc2c[nH]c3ccccc23)NC1=O | 0.001 |
| CCC(=O)CCCCC[C@@H]1NC(=O)[C@H]2CCCCN2C(=O)[C@H]([C@@H](C)CC)NC(=O)[C@H](Cc2c(-c3ccc4c(ccn4C)c3)[nH]c3ccccc23)NC1=O | 0.025 |
| CCC(=O)CCCCC[C@@H]1NC(=O)[C@H]2CCCCN2C(=O)[C@H]([C@@H](C)CC)NC(=O)[C@H](Cc2c(Br)[nH]c3ccccc23)NC1=O | 0.2 |
| CCC(=O)CCCCC[C@@H]1NC(=O)[C@H]2CCCCN2C(=O)[C@H]([C@@H](C)CC)NC(=O)[C@H](c2cnc3ccccc3c2Cl)NC1=O | 0.002 |
| CCC(=O)CCCCC[C@@H]1NC(=O)[C@H]2CCCCN2C(=O)[C@H]([C@@H](C)CC)NC(=O)[C@H](Cc2cn(CC(=O)O)c3ccccc23)NC1=O | 0.1 |

Target: Histone deacetylase (Eimeria tenella)
Assay: Binding affinity towards HDAC enzyme derived from Eimeria tenella protozoa

| Structure (SMILES) | Ki [µM] |
| --- | --- |
| CCC(=O)CCCCC[C@@H]1NC(=O)[C@H]2CCCCN2C(=O)[C@H]([C@@H](C)CC)NC(=O)[C@H](c2cnc3ccccc3c2N2CCCCC2)NC1=O | 0.02 |
| CCC(=O)CCCCC[C@@H]1NC(=O)[C@H]2CCCCN2C(=O)[C@H]([C@@H](C)CC)NC(=O)[C@H](c2cn(OC)c3ccccc3c2=O)NC1=O | 0.03 |
| CCC(=O)CCCCC[C@@H]1NC(=O)[C@H]2CCCCN2C(=O)[C@H]([C@@H](C)CC)NC(=O)[C@H](c2cn(CC)c3ccccc3c2=O)NC1=O | 0.07 |
| CCC(=O)CCCCC[C@@H]1NC(=O)[C@H]2CCCCN2C(=O)[C@H]([C@@H](C)CC)NC(=O)[C@H](c2cnc3ccccc3c2O)NC1=O | 0.01 |
| CCC(=O)CCCCC[C@@H]1NC(=O)[C@H]2CCCCN2C(=O)[C@H]([C@@H](C)CC)NC(=O)[C@H](c2cnc3ccccc3c2Cl)NC1=O | 0.05 |
| CCCCCCCCCCC(=O)C[C@@H]1NC(=O)[C@H](CCCCCC(=O)CC)NC(=O)[C@H]2CCCCN2C(=O)[C@H]([C@@H](C)CC)NC1=O | > 1 |
| CCC(=O)CCCCC[C@@H]1NC(=O)[C@H]2CCCCN2C(=O)[C@H]([C@@H](C)CC)NC(=O)[C@@H](c2cnc3ccccc3c2O)NC1=O | 0.25 |

Target: not listed separately
Assay: Inhibitory activity against histone deacetylase enzyme derived from partially purified extracts of Eimeria tenella protozoa using [3H]11 as radioligand

| Structure (SMILES) | IC50 [µM] |
| --- | --- |
| CCC(=O)CCCCC[C@@H]1NC(=O)[C@H]2CCCCN2C(=O)[C@H]([C@@H](C)CC)NC(=O)[C@H](C(=O)c2c[nH]c3ccccc23)NC1=O | 0.01 |
